Test results published in patent US20050250748A1, “Combination therapy of angiotensin converting enzyme inhibitor and eplerenone for treatment of cardiovascular disease” (G. D. Searle & Co., priority 1999, published 2005).
In brackets after ≈: the same amount, converted by molar mass. Where two headings read alike, the source gives them in different places.

What was measured:
[1] = at lower temperatures (below the enantiotropic transition temperature)
[2] = system: hypertensive patients; conditions: despite continued ACE inhibition; cited from earlier work
[3] = system: patients with severe HF (NYHA Class IV); conditions: enalapril plus diuretics compared to placebo plus diuretics; cited from earlier work
[4] = system: patients with stable NYHA Class II-IV heart failure; experiment: Biological Evaluation I: randomized, double-blind, placebo and active drug-controlled 12-week trial of eplerenone with ACE inhibitor and loop diuretic; conditions: for urinary aldosterone excretion, increase from baseline: 12 week visit; for plasma renin activity (PRA): drug therapy with ACE inhibitor and loop diuretic; for testosterone levels: in males
[5] = solubility of eplerenone in crystallization solvents; format: physicochemical; conditions: organic solvent or mixture; room temperature; organic solvents used for crystallization
[6] = system: patients alive at Day 3 with Killip class >I; conditions: patients randomized to lisinopril; ACE-I treatment stopped at 42 days, more than 50% continued long-term; cited from earlier work
[7] = system: patients with clinical evidence of HF at any time after an AMI; conditions: cited from earlier work; for risk reduction in all cause mortality compared to placebo: p=0.002
[8] = system: patients with impaired ejection fraction post AMI; conditions: cited from earlier work
[9] = system: patients with severe HF (NYHA Class III or IV); conditions: cited from earlier work
[10] = system: patients afflicted with congestive heart failure; conditions: coadministered with an ACE inhibitor; cited from earlier work
[11] = system: hypertensive-rat cohort; conditions: spironolactone subcutaneously; cited from earlier work
[12] = system: animal models; conditions: cited from earlier work
[13] = system: patients with LV dysfunction 2 to 6 days following MI; conditions: cited from earlier work
[14] = system: patients with myocardial infarction; conditions: patients with myocardial infarction receiving zofenopril; cited from earlier work

## COC(=O)[C@@H]1CC2=CC(=O)CC[C@]2(C)[C@@]23O[C@@H]2C[C@@]2(C)[C@@H](CC[C@@]24CCC(=O)O4)[C@H]13 [Form L]
[1]
  physical stability relative to Form H: greater physical stability

## C[C@H](CS)C(=O)N1CCC[C@H]1C(=O)O [captopril]
[2]
  plasma aldosterone: gradual return of plasma aldosterone to baseline levels

## CCOC(=O)[C@H](CCc1ccccc1)N[C@@H](C)C(=O)N1CCC[C@H]1C(=O)O [enalapril]
[3]
  mortality at one year reduced: 31%

## COC(=O)[C@@H]1CC2=CC(=O)CC[C@]2(C)[C@@]23O[C@@H]2C[C@@]2(C)[C@@H](CC[C@@]24CCC(=O)O4)[C@H]13 [eplerenone, Pregn-4-ene-7,21-dicarboxylic acid, 9,11-epoxy-17-hydroxy-3-oxo-, γ-lactone, methyl ester, (7^α, 11^α, 17^α)-]
[4]; 25 mg eplerenone QD, P>0.05
  urinary aldosterone excretion, increase from baseline: did not reach statistical significance
[4]
  plasma renin activity (PRA): significantly elevated
  testosterone levels: lack of effect
[4]; eplerenone at 25 mg, all patients
  reduction in BNP: highly significant
[4]; eplerenone at 100 mg, all patients
  reduction in BNP: highly significant
[4]; eplerenone dose of 50 mg
  urinary aldosterone excretion, increase from baseline: Greater increases
[4]; eplerenone dose of 100 mg
  urinary aldosterone excretion, increase from baseline: Greater increases
[4]; patients with high baseline BNP levels
  reduction in BNP: even greater
[5]
  solubility: 5 to 200 mg/mL (≈ 12.1 to 483 mM)

## NCCCC[C@H](N[C@@H](CCc1ccccc1)C(=O)O)C(=O)N1CCC[C@H]1C(=O)O [lisinopril]
[6]
  first-year mortality: 22%

## CCOC(=O)[C@H](CCc1ccccc1)N[C@@H](C)C(=O)N1[C@H](C(=O)O)C[C@@H]2CCC[C@@H]21 [ramipril]
[7]; AIRE
  first-year mortality rate in the active (ACE-I) arm: 16%
  risk reduction in all cause mortality compared to placebo: 27%
[7]; AIRE, p=0.017
  reduction in the risk of developing severe resistant HF compared to placebo: 23%
[7]; AIREX long-term (three year) follow-up
  risk reduction in all cause mortality compared to placebo: 36%
[8]
  ventricular dilatation and decline of systolic dysfunction: prevented ventricular dilatation and further decline of systolic dysfunction

## CC(=O)S[C@@H]1CC2=CC(=O)CC[C@]2(C)[C@H]2CC[C@@]3(C)[C@@H](CC[C@@]34CCC(=O)O4)[C@H]12 [spironolactone]
[9]; as restated in the sample size discussion
  reduction in mortality compared to placebo: > 30%
[9]; spironolactone 25 mg daily added to standard therapy (ACE-I and loop diuretic, with or without digoxin) vs standard therapy plus placebo, p<0.001
  risk reduction for all cause mortality: 30%
[9]; spironolactone 25 mg daily added to standard therapy
  lower frequency of hospitalization for worsening HF than placebo patients: 35%
[9]; spironolactone added to standard therapy
  median increase in serum potassium concentration compared to placebo: statistically but not clinically significant
[10]
  patients in whom highly effective: 13 of 16
[11]
  fibrosis: prevent fibrosis
[12]
  myocardial fibrosis: prevents myocardial fibrosis
[12]; listed as Spironolactone
  myocardial fibrosis: prevent fibrosis in animal models irrespective of the development of left ventricular hypertrophy and the presence of hypertension
[4]
  plasma renin activity (PRA): significantly elevated
  testosterone levels: significant increase
[8]
  ventricular dilatation and decline of systolic dysfunction: prevented ventricular dilatation and further decline of systolic dysfunction

## CCOC(=O)[C@H](CCc1ccccc1)N[C@@H](C)C(=O)N1[C@H](C(=O)O)C[C@H]2CCCC[C@@H]21 [trandolapril]
[13]; TRACE
  first-year mortality rate in the active (ACE-I) arm: 23%
[13]; p=0.001
  relative reduction in the risk of death compared to placebo: 18%
[13]; p=0.003
  reduction in the risk of progression to severe HF compared to placebo: 29%

## C[C@H](CSC(=O)c1ccccc1)C(=O)N1C[C@@H](Sc2ccccc2)C[C@H]1C(=O)O [zofenopril]
[14]
  plasma aldosterone: A similar effect
